Where a name gives a salt, the structure may show the parent alone.
Tests used:
[1] = system: Na^+ dependent high-affinity choline uptake (HACU) of AF64A-treated rat hippocampus; assay: Na+ dependent high-affinity choline uptake (HACU) in crude synaptosomal fraction of AF64A-treated rat hippocampus; assay type: biochemical; details: for Improved ratio (% based on Control): HACU, AF64A-treated rat hippocampus synaptosomal fraction, [3H]choline 1 μM, 37° C.
Description: Effects on Na^+ dependent high-affinity choline uptake (HACU) of AF64A-treated rat hippocampus
According to the method of Fischer et al. [J. Pharm. Exper. Ther., Vol. 222, p. 140 (1982)], AF64A was prepared from AF64. AF64A (1.5 nmole/1.5 μl/side) was injected into rat's both ventricles. After one week, subjecting decapitation, only hippocampus was taken out. It was homogenized with 0.32M of sucrose, centrifuged for 10 minutes at 1000 g, and the supernatant was further centrifuged for 20 minutes at 20,000 g to give crude synaptosomal fraction. The crude synaptosomal fraction and medicament were subjected to incubation at 37° C. for 30 minutes, and after addition of [^3 H]choline (1 μM), they were further subjected to incubation at 37° C. for 10 minutes.
As a control, the crude synaptosomal fraction was subjected to incubation at 37° C. for 30 minutes, and after addition of choline [^3 H]choline (1 μM), it was further subjected to incubation at 37° C. for 10 minutes to use. The reaction was stopped by subjecting filtration on Whatman GF/B filter. Radioactivity on the filter was measured by a liquid scintillation counter and it was made as the HACU amount. An amount of protein was determined according to the method of Bradford. [Analytical Biochemistry, Vol. 72, p. 248 (1976)].

[2] = Acute toxicity test, oral, mouse; details: in vivo
Description: The compound of the present invention was orally administered to a mouse and acute toxicity value was measured.

[3] = system: human Alzheimer's disease; details: in combination with use of lecithin; Summers, N. Engl. J. Med. 315, 1241 (1986); cited from earlier work

SMILES	Improved ratio (% based on Control) ([1]; 10^-4 M) [%]	Improved ratio (% based on Control) ([1]; 10^-5 M) [%]	Improved ratio (% based on Control) ([1]; 10^-6 M) [%]	Improved ratio (% based on Control) ([1]; 10^-7 M) [%]	Improved ratio (% based on Control) ([1]; 10^-8 M) [%]	LD50 [2] [mg/kg]	high affinity-choline uptake in hippocampus synaptosome of AF64A-injected rat (activation, in words) ([1]; AF64A injected in cerebral ventricles)	effectiveness in human Alzheimer's disease [3]
O=C(CN1C(=O)CCC1=O)Nc1c2c(nc3ccccc13)CCCC2 [Example 35]	26	27	15	26	2			
O=C(CN1CCCC1=O)Nc1c2c(nc3sccc13)CCCC2 [Example 27]	9	41	25	19	5			
O=C(CN1CCCC1=O)Nc1c2c(nc3ccccc13)CCN(Cc1ccccc1)C2 [Example 21]	18	32	19	11	10			
CC(C)C(=O)Nc1c2c(nc3ccccc13)CCCC2 [Example 3]	21	19	11	16	13			
CNCC(=O)Nc1c2c(nc3ccccc13)CCCC2 [Example 39, 9-[(2-methylamino)acetyl-amino]-1,2,3,4-tetrahydroacridine]	-11	24	16	8	5			
CCCC(=O)Nc1c2c(nc3ccccc13)CCCC2 [Example 1, N-(1,2,3,4-tetrahydroacridin-9-yl)butanamide]	15	31	28	13	20	1000		
CN1CCc2nc3ccccc3c(NC(=O)CN3CCCC3=O)c2C1 [Example 20]	28	9	23	21	10			
Cc1ccc2nc3c(c(NC(=O)CN4CCCC4=O)c2c1)CCCC3 [Example 15]		-2	28	-5	3			
Nc1c2c(nc3ccccc13)CCCC2 [9-Amino-1,2,3,4-tetrahydroacridine, reference compound]	-73	-11	8	5	2	67	could not be found out	effective to human Alzheimer's disease
O=C(CN1CCCC1=O)Nc1c2c(nc3ccccc13)C1CCN2CC1 [Example 22]	4	30	10	16	13			
CC(=O)N(C)CC(=O)Nc1c2c(nc3ccccc13)CCCC2 [Example 42]	11	29	30	14	11			
O=C(Cn1ccnc1)Nc1c2c(nc3ccccc13)CCCC2 [Example 41]	20	46	18	5	5			
CNC(=O)N1CCc2nc3ccccc3c(NC(=O)CN3CCCC3=O)c2C1 [Example 50]		27	35	20	4			
CCCCC(=O)Nc1c2c(nc3ccccc13)CCCC2 [Example 4]	5	29	3	5	4			
O=C(CN1CCCC1=O)Nc1c2c(nc3ccccc13)CCCC2 [Example 14, 2-(2-oxopyrrolidin-1-yl)-N-(1,2,3,4-tetrahydroacidin-9-yl)acetamide hydrochloride]	21	17	16	19	12	2300		
CCOC(=O)CNCC(=O)Nc1c2c(nc3ccccc13)CCCC2 [Example 40]	3	20	14	18	8			
CCCC(=O)Nc1c2c(nc3ccccc13)CCC(O)C2 (stereo not drawn) [Example 53, N-(1,2,3,4-tetrahydroacridin-2-ol-9-yl)butanamide]	14	15	23	18	14			
NC(=O)NCC(=O)Nc1c2c(nc3ccccc13)CCCC2 [Example 46]	27	13	28	11	-8			
O=C1CN(CC(=O)Nc2c3c(nc4ccccc24)CCCC3)C(=O)CN1 [Example 37]	39	34	27	9	14	2100		

Source: patent US4985430A, “9-acylamino-tetrahydroacridine derivatives and memory enhancing agent containing said derivative as active ingredient” (priority 1987, dated 1991)
